Results: patent US9302999B2, “Substituted triazoles as herbicides” (E. I. DU PONT DE NEMOURS AND COMPANY, priority 2012, dated 2016)

Assays:
Format in all cases: in vivo
[1] = system: canarygrass (Phalaris minor); experiment: Test D pre-/postemergence: canarygrass
Excerpt: (§1) Seeds of plant species selected from bluegrass (annual bluegrass, Poa annua), blackgrass (Alopecurus myosuroides), canarygrass (Phalaris minor), chickweed (common chickweed, Stellaria media), galium (catchweed bedstraw, Galium aparine), bromegrass, downy (downy bromegrass, Bromus tectorum), field poppy (Papaver rhoeas), field violet (Viola arvensis), foxtail, green (green foxtail, Setaria viridis), deadnettle (henbit deadnettle, Lamium amplexicaule), ryegrass, Italian (Italian ryegrass, Lolium multiflorum), kochia (Kochia scoparia), lambsquarters (Chenopodium album), oilseed rape (Brassica napus), pigweed (Amaranthus retroflexus), Russian thistle (Salsola iberica), chamomile (scentless chamomile, Matricaria inodora), speedwell (bird's-eye speedwell, Veronica persica), barley, spring (spring barley, Hordeum vulgare), wheat, spring (spring wheat, Triticum aestivum), buckwheat, wild (wild buckwheat, Polygonum convolvulus), mustard, wild (wild mustard, Sinapis arvensis), oat, wild (wild oat, Avena fatua), radish, wild (wild radish, Raphanus raphanistrum), windgrass (Apera spica-venti), barley, winter (winter barley, Hordeum vulgare), and wheat, winter (winter wheat, Triticum aestivum) were planted into a silt loam soil and treated preemergence with test chemicals formulated in a non-phytotoxic solvent mixture which included a surfactant. At the same time, these same crop and weed species were planted in pots containing the planting medium comprising spaghnum peat moss, vermiculite, wetting agent and starter nutrients and treated with postemergence applications of the test chemicals formulated in the same manner. Plants ranged in height from 2 to 18 cm (1- to 4-leaf stage).
(§2) Treated plants and controls were maintained in a controlled growth environment for 14 to 21 days after which time all species were compared to controls and visually evaluated. Plant response ratings, summarized in Table D, are based on a scale of 0 to 100 where 0 is no effect and 100 is complete control. A dash (-) response means no test result.

[2] = system: bromegrass, downy (downy bromegrass, Bromus tectorum); experiment: Test C pre-/postemergence: bromegrass, downy
Excerpt: (§3) Seeds of plant species selected from blackgrass (Alopecurus myosuroides), bromegrass, downy (downy bromegrass, Bromus tectorum), foxtail, green (green foxtail, Setaria viridis), ryegrass, Italian (Italian ryegrass, Lolium multiflorum), winter wheat (Triticum aestivum), wild oat (Avena fatua), galium (catchweed bedstraw, Galium aparine), bermudagrass (Cynodon dactylon), surinam grass (Brachiaria decumbens), cocklebur (common cocklebur, Xanthium strumarium), corn (Zea mays), large crabgrass (Digitaria sanguinalis), woolly cupgrass (Eriochloa villosa), foxtail, giant (giant foxtail, Setaria faberii), goosegrass (Eleusine indica), johnsongrass (Sorghum halepense), kochia (Kochia scoparia), lambsquarters (Chenopodium album), morningglory (Ipomoea coccinea), nightshade (eastern black nightshade, Solanum ptycanthum), nutsedge, yellow (yellow nutsedge, Cyperus esculentus), pigweed (Amaranthus retroflexus), ragweed (common ragweed, Ambrosia elation), soybean (Glycine max), common (oilseed) sunflower (Helianthus annuus), Russian thistle (Salsola kali) and velvetleaf (Abutilon theophrasti) were planted into a blend of loam soil and sand and treated preemergence with test chemicals formulated in a non-phytotoxic solvent mixture which included a surfactant.
(§4) At the same time, plants selected from these crop and weed species and also barley (winter barley, Hordeum vulgare), canarygrass (Phalaris minor), chickweed (common chickweed, Stellaria media) windgrass (Apera spica-venti) and deadnettle (henbit deadnettle, Lamium amplexicaule) were planted in pots containing Redi-Earth® planting medium (Scotts Company, 14111 Scottslawn Road, Marysville, Ohio 43041) comprising spaghnum peat moss, vermiculite, wetting agent and starter nutrients and treated with postemergence applications of test chemicals formulated in the same manner. Plants ranged in height from 2 to 18 cm (1- to 4-leaf stage) for postemergence treatments.
(§5) Treated plants and controls were maintained in a greenhouse for 13 to 15 days, after which time all species were compared to controls and visually evaluated. Plant response ratings, summarized in Table C, are based on a scale of 0 to 100 where 0 is no effect and 100 is complete control. A dash (-) response means no test result.

[3] = system: lambsquarters (Chenopodium album); experiment: Test D pre-/postemergence: lambsquarters
Excerpt: as §1, §2

[4] = system: deadnettle (henbit deadnettle, Lamium amplexicaule); experiment: Test D pre-/postemergence: deadnettle
Excerpt: as §1, §2

[5] = system: bermudagrass (Cynodon dactylon); experiment: Test C pre-/postemergence: bermudagrass
Excerpt: as §3, §4, §5

[6] = system: oat, wild (wild oat, Avena fatua); experiment: Test D pre-/postemergence: oat, wild
Excerpt: as §1, §2

[7] = system: barnyardgrass (Echinochloa crus-galli); experiment: Test B flooded paddy: barnyardgrass; details: Flood, applied to paddy water at 2-leaf stage, visually evaluated after 13 to 15 days
Procedure, shortened: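 Plants were grown to the 2-leaf stage and pots flooded to 3 cm above soil. Compounds were applied directly into the paddy water, with depth kept for the test. After 13–15 days in greenhouse, response was rated visually against controls on a 0 (no effect) to 100 (complete control) scale.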

[8] = Postemergence, 31 g ai/ha, scale 0 to 100 (0 no effect, 100 complete control)
[9] = Postemergence, 62 g ai/ha, scale 0 to 100 (0 no effect, 100 complete control)
[10] = Postemergence, 125 g ai/ha, scale 0 to 100, 0 no effect, 100 complete control
[11] = Postemergence, 250 g ai/ha, scale 0 to 100 (0 no effect, 100 complete control)
[12] = Postemergence, 16 g ai/ha, scale 0 to 100
[13] = Preemergence, 16 g ai/ha, scale 0 to 100 (0 no effect, 100 complete control)
[14] = Preemergence, 31 g ai/ha, scale 0 to 100 (0 no effect, 100 complete control)
[15] = Preemergence, 62 g ai/ha, scale 0 to 100
[16] = Preemergence, 125 g ai/ha, scale 0 to 100
[17] = Preemergence, 250 g ai/ha, scale 0 to 100
[18] = Postemergence, 250 g ai/ha, scale 0 to 100
[19] = Preemergence, 31 g ai/ha, scale of 0 to 100, 0 is no effect, 100 is complete control
[20] = Preemergence, 62 g ai/ha, scale 0 to 100, 0 no effect, 100 complete control
[21] = Preemergence, 125 g ai/ha, scale 0 to 100, 0 no effect, 100 complete control
[22] = Preemergence, 250 g ai/ha, scale 0 to 100, 0 no effect, 100 complete control
[23] = Postemergence, 16 g ai/ha, scale 0 to 100, 0 no effect, 100 complete control

## Cc1nn(-c2ccc(F)cc2)nc1Cc1ccnc(C(F)(F)F)c1 [Compound 16, 4-[[2-(4-fluorophenyl)-5-methyl-2H-1,2,3-triazol-4-yl]methyl]-2-(trifluoromethyl)pyridine]
[1]; [8]
  Plant response rating: Canarygrass: 30
[1]; [9]
  Plant response rating: Canarygrass: 35
[1]; [10]
  Plant response rating: Canarygrass: 40
[1]; [11]
  Plant response rating: Canarygrass: 80
[1]; [12]
  Plant response rating, Canarygrass: 20
[1]; [13]
  Plant response rating, Canarygrass: 20
[1]; [14]
  Plant response rating, Canarygrass: 40
[1]; [15]
  Plant response rating, Canarygrass: 50
[1]; [16]
  Plant response rating, Canarygrass: 90
[1]; [17]
  Plant response rating, Canarygrass: 100
[2]; [8]
  Plant response rating, Bromegrass, Downy: 15
[2]; [9]
  Plant response rating, Bromegrass, Downy: 15
[2]; [10]
  Plant response rating, Bromegrass, Downy: 25
[2]; [18]
  Plant response rating, Bromegrass, Downy: 25
[2]; [19]
  Plant response rating, Bromegrass, Downy: 5
[2]; [20]
  Plant response rating, Bromegrass, Downy: 10
[2]; [21]
  Plant response rating, Bromegrass, Downy: 50
[2]; [22]
  Plant response rating, Bromegrass, Downy: 100
[3]; [8]
  Plant response rating: Lambsquarters: 80
[3]; [9]
  Plant response rating: Lambsquarters: 100
[3]; [10]
  Plant response rating: Lambsquarters: 100
[3]; [11]
  Plant response rating: Lambsquarters: 100
[3]; [12]
  Plant response rating, Lambsquarters: 75
[3]; [13]
  Plant response rating, Lambsquarters: 30
[3]; [14]
  Plant response rating, Lambsquarters: 50
[3]; [15]
  Plant response rating, Lambsquarters: 80
[3]; [16]
  Plant response rating, Lambsquarters: 95
[3]; [17]
  Plant response rating, Lambsquarters: 100
[4]; [8]
  Plant response rating: Deadnettle: 25
[4]; [9]
  Plant response rating: Deadnettle: 45
[4]; [10]
  Plant response rating: Deadnettle: 50
[4]; [11]
  Plant response rating: Deadnettle: 90
[4]; [12]
  Plant response rating, Deadnettle: 10
[4]; [13]
  Plant response rating, Deadnettle: 0
[4]; [14]
  Plant response rating, Deadnettle: 40
[4]; [15]
  Plant response rating, Deadnettle: 60
[4]; [16]
  Plant response rating, Deadnettle: 100
[4]; [17]
  Plant response rating, Deadnettle: 100
[5]; [8]
  Plant response rating, Bermudagrass: 5
[5]; [9]
  Plant response rating, Bermudagrass: 5
[5]; [10]
  Plant response rating, Bermudagrass: 15
[5]; [18]
  Plant response rating, Bermudagrass: 65
[5]; [19]
  Plant response rating, Bermudagrass: 5
[5]; [20]
  Plant response rating, Bermudagrass: 25
[5]; [21]
  Plant response rating, Bermudagrass: 75
[5]; [22]
  Plant response rating, Bermudagrass: 75
[6]; [8]
  Plant response rating: Oat, Wild: 10
[6]; [9]
  Plant response rating: Oat, Wild: 30
[6]; [10]
  Plant response rating: Oat, Wild: 45
[6]; [11]
  Plant response rating: Oat, Wild: 50
[6]; [12]
  Plant response rating, Oat, Wild: 0
[6]; [13]
  Plant response rating, Oat, Wild: 0
[6]; [14]
  Plant response rating, Oat, Wild: 10
[6]; [15]
  Plant response rating, Oat, Wild: 10
[6]; [16]
  Plant response rating, Oat, Wild: 100
[6]; [17]
  Plant response rating, Oat, Wild: 100

## Cc1nn(-c2ccc(C(F)(F)F)cc2)nc1Cc1cccc(C(F)(F)F)c1 [Compound 124]
[2]; [23]
  Plant response rating, Bromegrass, Downy: 0
[2]; [8]
  Plant response rating, Bromegrass, Downy: 0
[2]; [9]
  Plant response rating, Bromegrass, Downy: 0
[2]; [10]
  Plant response rating, Bromegrass, Downy: 0
[5]; [23]
  Plant response rating, Bermudagrass: 5
[5]; [8]
  Plant response rating, Bermudagrass: 25
[5]; [9]
  Plant response rating, Bermudagrass: 45
[5]; [10]
  Plant response rating, Bermudagrass: 60

## Cc1nn(-c2ccnc(C(F)(F)F)c2)nc1Cc1ccnc(C(F)(F)F)c1 [Compound 137]
[7]; 250 g ai/ha
  Plant response rating, Barnyardgrass (0 to 100 scale, 0 is no effect, 100 is complete control): 45
[1]; [8]
  Plant response rating: Canarygrass: 20
[1]; [9]
  Plant response rating: Canarygrass: 30
[1]; [10]
  Plant response rating: Canarygrass: 50
[1]; [11]
  Plant response rating: Canarygrass: 75
[1]; [12]
  Plant response rating, Canarygrass: 10
[2]; [8]
  Plant response rating, Bromegrass, Downy: 10
[2]; [9]
  Plant response rating, Bromegrass, Downy: 30
[2]; [10]
  Plant response rating, Bromegrass, Downy: 60
[2]; [18]
  Plant response rating, Bromegrass, Downy: 85
[3]; [8]
  Plant response rating: Lambsquarters: 75
[3]; [9]
  Plant response rating: Lambsquarters: 80
[3]; [10]
  Plant response rating: Lambsquarters: 95
[3]; [11]
  Plant response rating: Lambsquarters: 95
[3]; [12]
  Plant response rating, Lambsquarters: 40
[4]; [8]
  Plant response rating: Deadnettle: 40
[4]; [9]
  Plant response rating: Deadnettle: 70
[4]; [10]
  Plant response rating: Deadnettle: 80
[4]; [11]
  Plant response rating: Deadnettle: 85
[4]; [12]
  Plant response rating, Deadnettle: 20
[5]; [8]
  Plant response rating, Bermudagrass: 30
[5]; [9]
  Plant response rating, Bermudagrass: 30
[5]; [18]
  Plant response rating, Bermudagrass: 45
[6]; [8]
  Plant response rating: Oat, Wild: 10
[6]; [9]
  Plant response rating: Oat, Wild: 20
[6]; [10]
  Plant response rating: Oat, Wild: 35
[6]; [11]
  Plant response rating: Oat, Wild: 50
[6]; [12]
  Plant response rating, Oat, Wild: 0

## CCCc1nn(-c2ccc(F)cc2)nc1Cc1ccnc(C(F)(F)F)c1 [Compound 153]
[7]; 250 g ai/ha
  Plant response rating, Barnyardgrass (0 to 100 scale, 0 is no effect, 100 is complete control): 80

## Cc1nn(-c2ccc(C(F)(F)F)c(F)c2)nc1Cc1ccnc(C(F)(F)F)c1 [Compound 162]
[7]; 125 g ai/ha
  Plant response rating, Barnyardgrass (0 to 100 scale, 0 is no effect, 100 is complete control): 70

## CCc1nn(-c2ccc(F)cc2)nc1Oc1ccnc(C(F)(F)F)c1 [Compound 166]
[7]; 125 g ai/ha
  Plant response rating, Barnyardgrass (0 to 100 scale, 0 is no effect, 100 is complete control): 70

## CCCc1nn(-c2ccc(C(F)(F)F)c(F)c2)nc1Oc1ccnc(C(F)(F)F)c1 [Compound 185]
[7]; 250 g ai/ha
  Plant response rating, Barnyardgrass (0 to 100 scale, 0 is no effect, 100 is complete control): 90

## CCOc1nn(-c2ccc(Br)cc2)nc1Cc1ccnc(C(F)(F)F)c1 [Compound 189]
[7]; 125 g ai/ha
  Plant response rating, Barnyardgrass (0 to 100 scale, 0 is no effect, 100 is complete control): 0
